ChEMBL document CHEMBL1201862, “PubChem BioAssay data set” (2004)
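Five concentrations, 48 hours, 96-well plates. Abbreviation: GI50, concentration required for 50% inhibition of growth.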 The source made the active and inactive calls. Rule as the data show it: active = GI50 up to about 1.1 µM and inactive = higher.

Legend:
Assay in all cases: inhibition of tumour cell growth, NCI panel, 48 h
A498 = tested on: A498
CAKI-1 = tested on: CAKI-1
EKVX = tested on: EKVX
HCC 2998 = tested on: HCC 2998
HT-29 = tested on: HT-29
IGROV-1 = tested on: IGROV-1
M14 = tested on: M14
MDA-N = tested on: MDA-N
NCI/ADR-RES = tested on: NCI/ADR-RES
OVCAR-5 = tested on: OVCAR-5
SF-268 = tested on: SF-268
SK-MEL-28 = tested on: SK-MEL-28
SK-MEL-5 = tested on: SK-MEL-5
SK-OV-3 = tested on: SK-OV-3
SR = tested on: SR
SW-620 = tested on: SW-620
T47D = tested on: T47D
TK-10 = tested on: TK-10
UACC-257 = tested on: UACC-257
UO-31 = tested on: UO-31

Row | SMILES | GI50 (A498) | GI50 (CAKI-1) | GI50 (EKVX) | GI50 (HCC 2998) | GI50 (HT-29) | GI50 (IGROV-1) | GI50 (M14) | GI50 (MDA-N) | GI50 (NCI/ADR-RES) | GI50 (OVCAR-5) | GI50 (SF-268) | GI50 (SK-MEL-28) | GI50 (SK-MEL-5) | GI50 (SK-OV-3) | GI50 (SR) | GI50 (SW-620) | GI50 (T47D) | GI50 (TK-10) | GI50 (UACC-257) | GI50 (UO-31)
1 | CC(C)/C(Cl)=N\OC(=O)Nc1ccc(S(N)(=O)=O)cc1 | 17 µM (inactive) | 17.3 µM (inactive) | 18.5 µM (inactive) | 18 µM (inactive) | 22.4 µM (inactive) | 17.5 µM (inactive) | 8.13 µM (inactive) | 18.2 µM (inactive) | 18.7 µM (inactive) | 18.3 µM (inactive) | 23.9 µM (inactive) | 16.2 µM (inactive) | 15.9 µM (inactive) | 17.7 µM (inactive) | 2.08 µM (inactive) | 1.86 µM (inactive) | 22.6 µM (inactive) | 17.9 µM (inactive) | 17.4 µM (inactive) | 16.6 µM (inactive)
2 | COc1cc(C)cc2c1C(=O)C(Br)=CC2=O | 20.1 µM (inactive) | 1.63 µM (inactive) | 17.7 µM (inactive) | 19.5 µM (inactive) | 8.22 µM (inactive) | 17.7 µM (inactive) | 3.3 µM (inactive) | 3.56 µM (inactive) | 27.3 µM (inactive) | 19.8 µM (inactive) | 16.4 µM (inactive) | 17.4 µM (inactive) | 12.6 µM (inactive) | 19.6 µM (inactive) | 4.57 µM (inactive) | 1.89 µM (inactive) | 2.21 µM (inactive) | 2.49 µM (inactive) | 13.7 µM (inactive) | 5.38 µM (inactive)
3 | Cn1cc2c(=O)n3ncn(-c4ccc(Br)cc4)c3nc2n1 | > 100 µM (inactive) | > 100 µM (inactive) | > 100 µM (inactive) | > 100 µM (inactive) | > 100 µM (inactive) | > 100 µM (inactive) | > 100 µM (inactive) | > 100 µM (inactive) | > 100 µM (inactive) | > 100 µM (inactive) | > 100 µM (inactive) | > 100 µM (inactive) | 87.9 µM (inactive) | > 100 µM (inactive) | > 100 µM (inactive) | > 100 µM (inactive) | > 100 µM (inactive) | > 100 µM (inactive) | > 100 µM (inactive) | > 100 µM (inactive)
4 | Cc1ccc([C@H]2CC(=O)C[C@H](c3ccc(C)cc3)C23C(=O)c2ccccc2C3=O)cc1 | > 100 µM (inactive) | 68.2 µM (inactive) | > 100 µM (inactive) | 57.3 µM (inactive) | 67.3 µM (inactive) | 40 µM (inactive) | 27.8 µM (inactive) | 52.8 µM (inactive) | 10.1 µM (inactive) | > 100 µM (inactive) | 23 µM (inactive) | > 100 µM (inactive) | 34.4 µM (inactive) | 31.6 µM (inactive) | 13.2 µM (inactive) | 94.6 µM (inactive) | > 100 µM (inactive) | 22.2 µM (inactive) | 15.4 µM (inactive) | > 100 µM (inactive)
5 | CCc1n[nH]c(=O)n1N1C(=O)CCC1=O | > 100 µM (inactive) | > 100 µM (inactive) | > 100 µM (inactive) | > 100 µM (inactive) | > 100 µM (inactive) | > 100 µM (inactive) | > 100 µM (inactive) | > 100 µM (inactive) | > 100 µM (inactive) | > 100 µM (inactive) | > 100 µM (inactive) | > 100 µM (inactive) | > 100 µM (inactive) | > 100 µM (inactive) | > 100 µM (inactive) | > 100 µM (inactive) | > 100 µM (inactive) | > 100 µM (inactive) | > 100 µM (inactive) | > 100 µM (inactive)
6 | COC(=O)C1(C#N)C(C)(C)N=C(c2ccccc2)C12CCCCC2 (stereo not given) | > 100 µM (inactive) | > 100 µM (inactive) | > 100 µM (inactive) | > 100 µM (inactive) | > 100 µM (inactive) | > 100 µM (inactive) | > 100 µM (inactive) | > 100 µM (inactive) | > 100 µM (inactive) | > 100 µM (inactive) | > 100 µM (inactive) | 82 µM (inactive) | > 100 µM (inactive) | > 100 µM (inactive) | 14.7 µM (inactive) | > 100 µM (inactive) | > 100 µM (inactive) | > 100 µM (inactive) | > 100 µM (inactive) | 75.7 µM (inactive)
7 | c1ccc2c(c1)Nc1c3ccccc3nc3cccc-2c13 | 2.51 µM (inactive) | 1.08 µM (active) | 1.55 µM (inactive) | 1.02 µM (active) | 0.546 µM (active) | 1.21 µM (inactive) | 1.76 µM (inactive) | 1.17 µM (inactive) | 1.05 µM (active) | 1.43 µM (inactive) | 1.49 µM (inactive) | 1.71 µM (inactive) | 1.42 µM (inactive) | 1.35 µM (inactive) | 0.462 µM (active) | 0.283 µM (active) | 2.06 µM (inactive) | 1.73 µM (inactive) | 1.73 µM (inactive) | 1.36 µM (inactive)
